Test results from patent US20220046923A1, “HERBICIDAL CINNOLINIUM COMPOUNDS” (SYNGENTA CROP PROTECTION AG, priority 2018, published 2022).

Assays:
Assay in all cases: Post-emergence efficacy, glasshouse spray test
Type in all cases: in vivo
[1] = system: Amaranthus palmeri (AMAPA); settings: evaluated after 13 days; for pest or weed control at 500 g/ha / pest or weed control at 1000 g/ha: Amaranthus palmeri, post-emergence, 312 h, read-out: Control of weed species AMAPA after post-emergence application (100=total damage to plant; 0=no damage to plant); for pest or weed control at 500 g/ha: application rate 500 g/Ha; for Control of weed species AMAPA after post-emergence application (100=total damage to plant; 0=no damage to plant) / pest or weed control at 1000 g/ha: application rate 1000 g/Ha
Summary of the method: (§1)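 Efficacy was rated 13 days post-treatment on a 0–100 damage scale. Treatment was a post-emergence spray on plants raised 14 days in soil at 24/16 °C, 14 h photoperiod and 65% humidity.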

[2] = system: Chenopodium album (CHEAL); settings: evaluated after 13 days; for pest or weed control at 500 g/ha / pest or weed control at 1000 g/ha: Chenopodium album, post-emergence, 312 h, read-out: Control of weed species CHEAL after post-emergence application (100=total damage to plant; 0=no damage to plant); for pest or weed control at 500 g/ha: application rate 500 g/Ha; for Control of weed species CHEAL after post-emergence application (100=total damage to plant; 0=no damage to plant) / pest or weed control at 1000 g/ha: application rate 1000 g/Ha
Summary of the method: as §1

Setaria faberi (SETFA) = settings: evaluated after 13 days; for pest or weed control at 500 g/ha / pest or weed control at 1000 g/ha: Setaria faberi, post-emergence, 312 h, read-out: Control of weed species SETFA after post-emergence application (100=total damage to plant; 0=no damage to plant); for pest or weed control at 500 g/ha: application rate 500 g/Ha; for Control of weed species SETFA after post-emergence application (100=total damage to plant; 0=no damage to plant) / pest or weed control at 1000 g/ha: application rate 1000 g/Ha
Summary of the method: as §1

[3] = system: Echinochloa crus-galli (ECHCG); settings: evaluated after 13 days; for pest or weed control at 500 g/ha / pest or weed control at 1000 g/ha: Echinochloa crus-galli, post-emergence, 312 h, read-out: Control of weed species ECHCG after post-emergence application (100=total damage to plant; 0=no damage to plant); for pest or weed control at 500 g/ha: application rate 500 g/Ha; for Control of weed species ECHCG after post-emergence application (100=total damage to plant; 0=no damage to plant) / pest or weed control at 1000 g/ha: application rate 1000 g/Ha
Summary of the method: as §1

Eleusine indica (ELEIN) = settings: evaluated after 13 days; for pest or weed control at 500 g/ha / pest or weed control at 1000 g/ha: Eleusine indica, post-emergence, 312 h, read-out: Control of weed species ELEIN after post-emergence application (100=total damage to plant; 0=no damage to plant); for pest or weed control at 500 g/ha: application rate 500 g/Ha; for Control of weed species ELEIN after post-emergence application (100=total damage to plant; 0=no damage to plant) / pest or weed control at 1000 g/ha: application rate 1000 g/Ha
Summary of the method: as §1

[4] = system: Euphorbia heterophylla (EPHHL); settings: evaluated after 13 days; for pest or weed control at 500 g/ha / pest or weed control at 1000 g/ha: Euphorbia heterophylla, post-emergence, 312 h, read-out: Control of weed species EPHHL after post-emergence application (100=total damage to plant; 0=no damage to plant); for pest or weed control at 500 g/ha: application rate 500 g/Ha; for Control of weed species EPHHL after post-emergence application (100=total damage to plant; 0=no damage to plant) / pest or weed control at 1000 g/ha: application rate 1000 g/Ha
Summary of the method: as §1

[5] = system: Digitaria sanguinalis (DIGSA); settings: evaluated after 13 days; for pest or weed control at 500 g/ha / pest or weed control at 1000 g/ha: Digitaria sanguinalis, post-emergence, 312 h, read-out: Control of weed species DIGSA after post-emergence application (100=total damage to plant; 0=no damage to plant); for pest or weed control at 500 g/ha: application rate 500 g/Ha; for Control of weed species DIGSA after post-emergence application (100=total damage to plant; 0=no damage to plant) / pest or weed control at 1000 g/ha: application rate 1000 g/Ha
Summary of the method: as §1

Lolium perenne (LOLPE) = settings: evaluated after 13 days; for pest or weed control at 500 g/ha / pest or weed control at 1000 g/ha: Lolium perenne, post-emergence, 312 h, read-out: Control of weed species LOLPE after post-emergence application (100=total damage to plant; 0=no damage to plant); for pest or weed control at 500 g/ha: application rate 500 g/Ha; for Control of weed species LOLPE after post-emergence application (100=total damage to plant; 0=no damage to plant) / pest or weed control at 1000 g/ha: application rate 1000 g/Ha
Summary of the method: as §1

[6] = system: Ipomoea hederacea (IPOHE); settings: evaluated after 13 days; for pest or weed control at 500 g/ha / pest or weed control at 1000 g/ha: Ipomoea hederacea, post-emergence, 312 h, read-out: Control of weed species IPOHE after post-emergence application (100=total damage to plant; 0=no damage to plant); for pest or weed control at 500 g/ha: application rate 500 g/Ha; for Control of weed species IPOHE after post-emergence application (100=total damage to plant; 0=no damage to plant) / pest or weed control at 1000 g/ha: application rate 1000 g/Ha
Summary of the method: as §1

Row | SMILES | pest or weed control at 1000 g/ha [1] [%] | pest or weed control at 1000 g/ha [2] [%] | pest or weed control at 1000 g/ha (Setaria faberi (SETFA)) [%] | pest or weed control at 1000 g/ha [3] [%] | pest or weed control at 1000 g/ha (Eleusine indica (ELEIN)) [%] | pest or weed control at 1000 g/ha [4] [%] | pest or weed control at 1000 g/ha [5] [%] | pest or weed control at 1000 g/ha (Lolium perenne (LOLPE)) [%] | pest or weed control at 1000 g/ha [6] [%] | also measured
1 | COC(=O)c1cccc2cc[n+](CCS(=O)(=O)[O-])nc12 [Compound A109, 2-(8-methoxycarbonylcinnolin-2-ium-2-yl)ethanesulfonate] |  |  |  |  |  |  |  |  |  | pest or weed control at 500 g/ha [1]: 40%; pest or weed control at 500 g/ha [2]: 20%; pest or weed control at 500 g/ha (Setaria faberi (SETFA)): 10%; pest or weed control at 500 g/ha [3]: 30%; pest or weed control at 500 g/ha (Eleusine indica (ELEIN)): 10%; pest or weed control at 500 g/ha [4]: 30%; pest or weed control at 500 g/ha [5]: 10%; pest or weed control at 500 g/ha (Lolium perenne (LOLPE)): 10%; pest or weed control at 500 g/ha [6]: 10%
2 | CSc1c[n+](CCS(=O)(=O)O)nc2ccccc12.O=C([O-])C(F)(F)F [Compound A44] |  |  |  |  |  |  |  |  |  | Control of weed species AMAPA after post-emergence application (100=total damage to plant; 0=no damage to plant) [1]: 30; Control of weed species CHEAL after post-emergence application (100=total damage to plant; 0=no damage to plant) [2]: 30; Control of weed species SETFA after post-emergence application (100=total damage to plant; 0=no damage to plant) (Setaria faberi (SETFA)): 30; Control of weed species ECHCG after post-emergence application (100=total damage to plant; 0=no damage to plant) [3]: 10; Control of weed species ELEIN after post-emergence application (100=total damage to plant; 0=no damage to plant) (Eleusine indica (ELEIN)): 70; Control of weed species EPHHL after post-emergence application (100=total damage to plant; 0=no damage to plant) [4]: 90; Control of weed species DIGSA after post-emergence application (100=total damage to plant; 0=no damage to plant) [5]: 30; Control of weed species LOLPE after post-emergence application (100=total damage to plant; 0=no damage to plant) (Lolium perenne (LOLPE)): 0; Control of weed species IPOHE after post-emergence application (100=total damage to plant; 0=no damage to plant) [6]: 20
3 | O=S(=O)([O-])CC[n+]1ccc2ccc(F)cc2n1 [Compound A83] | 100 | 100 | 50 | 40 | 80 | 100 | 50 | 50 | 60 | 
4 | Cc1cc2ccccc2n[n+]1CCS(=O)(=O)[O-] [Compound A77, 2-(3-methylcinnolin-2-ium-2-yl)ethanesulfonate] | 100 | 100 | 30 | 30 | 90 | 90 | 90 | 40 | 80 | 
5 | COc1ccc2cc[n+](CCS(=O)(=O)[O-])nc2c1 [Compound A85] | 100 | 100 | 30 | 20 | 40 | 80 | 20 | 20 | 70 | 
6 | O=S(=O)([O-])CCC[n+]1cc(C(Cl)(Cl)Cl)c2ccccc2n1 [Compound A40] |  |  |  |  |  |  |  |  |  | pest or weed control at 500 g/ha [1]: 50%; pest or weed control at 500 g/ha [2]: 50%; pest or weed control at 500 g/ha (Setaria faberi (SETFA)): 0%; pest or weed control at 500 g/ha [3]: 30%; pest or weed control at 500 g/ha (Eleusine indica (ELEIN)): 20%; pest or weed control at 500 g/ha [4]: 40%; pest or weed control at 500 g/ha [5]: 10%; pest or weed control at 500 g/ha (Lolium perenne (LOLPE)): 0%; pest or weed control at 500 g/ha [6]: 50%
7 | O=C(O)CCC[n+]1ccc2ccccc2n1 [Compound A17] |  |  |  |  |  |  |  |  |  | Control of weed species AMAPA after post-emergence application (100=total damage to plant; 0=no damage to plant) [1]: 70; Control of weed species CHEAL after post-emergence application (100=total damage to plant; 0=no damage to plant) [2]: 60; Control of weed species SETFA after post-emergence application (100=total damage to plant; 0=no damage to plant) (Setaria faberi (SETFA)): 40; Control of weed species ECHCG after post-emergence application (100=total damage to plant; 0=no damage to plant) [3]: 30; Control of weed species ELEIN after post-emergence application (100=total damage to plant; 0=no damage to plant) (Eleusine indica (ELEIN)): 60; Control of weed species EPHHL after post-emergence application (100=total damage to plant; 0=no damage to plant) [4]: 40; Control of weed species DIGSA after post-emergence application (100=total damage to plant; 0=no damage to plant) [5]: 40; Control of weed species LOLPE after post-emergence application (100=total damage to plant; 0=no damage to plant) (Lolium perenne (LOLPE)): 40; Control of weed species IPOHE after post-emergence application (100=total damage to plant; 0=no damage to plant) [6]: 30
8 | COC(=O)C[n+]1ccc2ccccc2n1 [Compound A1, methyl 2-cinnolin-2-ium-2-ylacetate bromide] | 100 | 60 | 60 | 70 | 100 | 90 | 70 | 40 | 50 | 
9 | O=S(=O)([O-])CCC[n+]1ccc2ccccc2n1 [Compound A67] | 100 | 90 | 80 | 60 | 80 | 70 | 80 | 80 | 80 | 
10 | C[C@@H](CNS(=O)(=O)[O-])[n+]1ccc2ccccc2n1 [Compound A50] |  |  |  |  |  |  |  |  |  | pest or weed control at 500 g/ha [1]: 80%; pest or weed control at 500 g/ha [2]: 70%; pest or weed control at 500 g/ha (Setaria faberi (SETFA)): 20%; pest or weed control at 500 g/ha [3]: 20%; pest or weed control at 500 g/ha (Eleusine indica (ELEIN)): 20%; pest or weed control at 500 g/ha [4]: 60%; pest or weed control at 500 g/ha [5]: 30%; pest or weed control at 500 g/ha (Lolium perenne (LOLPE)): 20%; pest or weed control at 500 g/ha [6]: 40%
11 | N[C@@H](C[n+]1ccc2ccccc2n1)C(=O)[O-] [Compound A23, (2S)-2-amino-3-cinnolin-2-ium-2-yl-propanoic Acid 2,2,2-trifluoroacetate] | 60 | 30 | 40 | 30 | 20 | 30 | 40 | 10 | 20 | 
12 | O=S(=O)([O-])C[n+]1ccc2ccccc2n1 [Compound A48, cinnolin-2-ium-2-ylmethanesulfonate] | 100 | 80 | 70 | 40 | 90 | 100 | 60 | 70 | 100 | 
13 | O=C(O)c1ccc(C[n+]2ccc3ccccc3n2)cc1 [Compound A89] | 20 | 0 | 0 | 0 | 0 | 40 | 0 | 0 | 20 | 
